Experimental data published in US7335723B2, “Melanin-concentrating hormone antagonists” (priority 2001, dated 2008).
pEC50, pIC50: −log10 of the molar value. Where a SMILES comes first, the peptide text is derived from it. Bridges are numbered along the chain shown (N, C = ends). [ ]: non-standard residue; d: D form. The star is where a group is joined. Pentanoyl(5-guanidino) = NC(N)=NCCCCC(=O)*; Nle = CCCC[C@H](N)C(=O)O; Ava = NCCCCC(=O)O; βAla = NCCC(=O)O

What was measured:
[1] = biological target: human MCH-1R (Homo sapiens, UniProt Q99705); test: MCH-1R binding assay, inhibition of [125I]-human MCH binding to membranes
human MCH-1R, sequence (Q99705 whole entry): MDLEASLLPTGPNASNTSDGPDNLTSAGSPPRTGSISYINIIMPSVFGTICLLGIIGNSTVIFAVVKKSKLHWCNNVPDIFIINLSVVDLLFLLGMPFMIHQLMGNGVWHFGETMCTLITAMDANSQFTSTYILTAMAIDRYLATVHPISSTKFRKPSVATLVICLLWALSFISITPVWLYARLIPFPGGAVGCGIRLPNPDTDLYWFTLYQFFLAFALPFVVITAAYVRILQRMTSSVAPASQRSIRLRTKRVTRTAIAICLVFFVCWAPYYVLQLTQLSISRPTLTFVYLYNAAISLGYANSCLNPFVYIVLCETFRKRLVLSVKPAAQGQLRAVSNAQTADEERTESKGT

[2] = biological target: rat MCH-1R (Rattus norvegicus, UniProt P97639); test: Aequorin bioluminescence functional assay, MCH-1R agonist activity; details: for MCH-1R Agonist Activation %: 293-AEQ17 cells expressing rat MCH-1R
rat MCH-1R, sequence (P97639 whole entry): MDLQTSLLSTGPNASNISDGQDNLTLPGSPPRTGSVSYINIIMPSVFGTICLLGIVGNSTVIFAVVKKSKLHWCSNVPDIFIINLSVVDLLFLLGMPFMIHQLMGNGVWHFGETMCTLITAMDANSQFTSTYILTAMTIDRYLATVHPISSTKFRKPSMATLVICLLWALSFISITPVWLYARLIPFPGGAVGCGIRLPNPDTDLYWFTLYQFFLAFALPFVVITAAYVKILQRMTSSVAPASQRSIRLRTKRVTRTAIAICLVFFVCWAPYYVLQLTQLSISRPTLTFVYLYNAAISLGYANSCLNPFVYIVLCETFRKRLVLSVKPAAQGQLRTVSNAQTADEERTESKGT

[3] = biological target: human MCH-2R (Homo sapiens, UniProt Q969V1); test: Aequorin bioluminescence functional assay, MCH-2R agonist activity; details: for MCH-2R Agonist Activation %: 293-AEQ17 cells expressing human MCH-2R
human MCH-2R, sequence (Q969V1 whole entry): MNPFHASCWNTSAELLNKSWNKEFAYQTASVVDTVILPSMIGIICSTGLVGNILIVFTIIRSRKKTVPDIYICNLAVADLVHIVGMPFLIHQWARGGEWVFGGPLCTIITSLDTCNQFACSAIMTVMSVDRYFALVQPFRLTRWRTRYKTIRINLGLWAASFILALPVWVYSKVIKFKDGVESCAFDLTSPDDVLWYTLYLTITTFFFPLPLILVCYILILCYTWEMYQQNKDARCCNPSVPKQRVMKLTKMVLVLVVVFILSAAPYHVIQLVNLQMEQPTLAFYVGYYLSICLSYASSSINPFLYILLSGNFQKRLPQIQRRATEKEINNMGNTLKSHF

| SMILES | MCH-1R Binding, % @ concentration ([1]; @ 10 (concentration unit not given), in the IC50 (nM) column) | pEC50 [2] | MCH-1R Agonist Activation % [2] | pEC50 [3] | MCH-2R Agonist Activation % [3] | pIC50 [1] |
| --- | --- | --- | --- | --- | --- | --- |
| CSCC[C@@H]1NC(=O)[C@@H](NC(=O)[C@H](CCCNC(=N)N)NC(C)=O)CSSC[C@@H](C(N)=O)NC(=O)CCNC(=O)CCNC(=O)[C@H](Cc2ccc(O)cc2)NC(=O)[C@H](C(C)C)NC(=O)[C@H](CCCNC(=N)N)NC(=O)CCNC(=O)CCNC1=O [SEQ. ID. NO. 31] (Ac-RCM[βAla][βAla]RVY[βAla][βAla]C-NH2; disulfide 2-11) | 76% @ 10 | < 5.00 | 3% | < 5.00 | 6% |  |
| CSCC[C@@H]1NC(=O)[C@@H](NC(=O)[C@H](CCCNC(=N)N)NC(=O)[C@H](CC(C)C)NC(=O)[C@H](CCSC)NC(=O)[C@H](CC(=O)O)NC(=O)[C@H](Cc2ccccc2)NC(=O)[C@@H](N)CC(=O)O)CSSC[C@@H](C(=O)N[C@@H](Cc2c[nH]c3ccccc23)C(=O)N[C@@H](CCC(N)=O)C(=O)N[C@H](C(=O)O)C(C)C)NC(=O)[C@@H]2CCCN2C(=O)[C@H](CCCNC(=N)N)NC(=O)[C@H](Cc2ccc(O)cc2)NC(=O)[C@H](C(C)C)NC(=O)[C@H](CCCNC(=N)N)NC(=O)CNC(=O)[C@H](CC(C)C)NC1=O [hMCH, reference compound] |  | 7.51 | 100% |  | 100% |  |
| CSCC[C@@H]1NC(=O)[C@@H](NC(=O)CCCCNC(=N)N)CSSC[C@@H](C(N)=O)NC(=O)CNC(=O)[C@H](Cc2ccc(O)cc2)NC(=O)[C@H](C(C)C)NC(=O)[C@H](CCCNC(=N)N)NC(=O)CCCCNC(=O)CCCCNC1=O [SEQ. ID. NO. 6] ({Pentanoyl(5-guanidino)}-CM[Ava][Ava]RVYGC-NH2; disulfide 1-9) |  | < 5.00 | 0.1% | < 5.00 | 25% | < 6.00 |
| CCCC[C@@H]1NC(=O)[C@@H](NC(=O)CCCCNC(=N)N)CSSC[C@@H](C(=O)O)NC(=O)CCCCNC(=O)CCCCNC(=O)[C@H](Cc2ccc(O)cc2)NC(=O)[C@H](C)NC(=O)[C@H](CCCNC(=N)N)NC(=O)CCCCNC(=O)CCCCNC1=O [SEQ. ID. NO. 35] ({Pentanoyl(5-guanidino)}-C[Nle][Ava][Ava]RAY[Ava][Ava]C-OH; disulfide 1-10) |  | < 5.00 | 0.1% | < 5.00 | 25% | < 6.00 |
| CC(=O)N[C@@H](CCCNC(=N)N)C(=O)N[C@H]1CSSC[C@@H](C(N)=O)NC(=O)CCCCNC(=O)CCCCNC(=O)[C@H](Cc2ccc(O)cc2)NC(=O)[C@H](C(C)C)NC(=O)[C@H](CCCNC(=N)N)NC(=O)CNC(=O)[C@H](CC(C)C)NC(=O)[C@H](C)NC1=O [SEQ. ID. NO. 22] (Ac-RCALGRVY[Ava][Ava]C-NH2; disulfide 2-11; C-terminus assumed) |  | < 5.00 | 0.1% | 5.74 | 25% | < 6.00 |
| CSCC[C@@H]1NC(=O)[C@@H](NC(=O)[C@H](CCCNC(=N)N)NC(C)=O)CSSC[C@@H](C(N)=O)NC(=O)CCCCNC(=O)CCCCNC(=O)[C@H](Cc2ccc(O)cc2)NC(=O)[C@H](C(C)C)NC(=O)[C@H](CCCNC(=N)N)NC(=O)[C@H]2CCCN2C(=O)[C@H](CC(C)C)NC1=O [SEQ. ID. NO. 28] (Ac-RCML[dP]RVY[Ava][Ava]C-NH2; disulfide 2-11 (inferred); C-terminus assumed) |  |  |  | < 5.00 | 7% | 6.15 |
| CSCC[C@@H]1NC(=O)[C@H](NC(=O)[C@H](CCCNC(=N)N)NC(C)=O)CSSC[C@@H](C(N)=O)NC(=O)CCCCNC(=O)CCCCNC(=O)[C@H](Cc2ccc(O)cc2)NC(=O)[C@H](C(C)C)NC(=O)[C@H](CCCNC(=N)N)NC(=O)CNC(=O)[C@H](CC(C)C)NC1=O [SEQ. ID. NO. 24] (Ac-R[dC]MLGRVY[Ava][Ava]C-NH2; disulfide 2-11; C-terminus assumed) |  | < 5.00 | 3% | < 5.00 | 17% | 6.46 |
| CC(C)[C@@H]1NC(=O)[C@H](CCCNC(=N)N)NC(=O)CCCCNC(=O)CCCCNC(=O)CCCCNC(=O)[C@@H](NC(=O)CCCCNC(=N)N)CSSC[C@@H](C(N)=O)NC(=O)CCCCNC(=O)CCCCNC(=O)[C@H](Cc2ccc(O)cc2)NC1=O [SEQ. ID. NO. 36] |  | < 5.00 | 0.1% | < 5.00 | 24% | < 6.00 |

The remaining compounds from weak to strong by pEC50 [2], led by results:

| MCH-1R Binding, % @ concentration ([1]; @ 10 (concentration unit not given), in the IC50 (nM) column) | pEC50 [2] | MCH-1R Agonist Activation % [2] | pEC50 [3] | MCH-2R Agonist Activation % [3] | pIC50 [1] | SMILES |
| --- | --- | --- | --- | --- | --- | --- |
|  | 5.89 | 28% | < 5.00 | 18% | 7.71 | CSCC[C@@H]1NC(=O)[C@@H](NC(=O)[C@@H](CCCNC(=N)N)NC(C)=O)CSSC[C@@H](C(N)=O)NC(=O)CCCCNC(=O)CCCCNC(=O)[C@H](Cc2ccc(O)cc2)NC(=O)[C@H](C(C)C)NC(=O)[C@H](CCCNC(=N)N)NC(=O)CNC(=O)[C@H](CC(C)C)NC1=O [SEQ. ID. NO. 10] (Ac-[dR]CMLGRVY[Ava][Ava]C-NH2; disulfide 2-11 (inferred); C-terminus assumed) |
|  | 5.97 | 72% | < 5.00 | 7% | 8.43 | CSCC[C@@H]1NC(=O)[C@@H](NC(=O)[C@@H](CCCNC(=N)N)NC(C)=O)CSSC[C@@H](C(N)=O)NC(=O)[C@@H]2CCCN2C(=O)[C@H](CCCNC(=N)N)NC(=O)[C@H](Cc2ccc(O)cc2)NC(=O)[C@H](C(C)C)NC(=O)[C@H](CCCNC(=N)N)NC(=O)CCCCNC(=O)CCCCNC1=O [SEQ. ID. NO. 4] (Ac-[dR]CM[Ava][Ava]RVYRPC-NH2; disulfide 2-11 (inferred); C-terminus assumed) |
|  | 6.39 | 75% | < 5.00 |  | 8.18 | CSCC[C@@H]1NC(=O)[C@@H](NC(=O)[C@H](CCCNC(=N)N)NC(C)=O)CSSC[C@@H](C(N)=O)NC(=O)CCCCNC(=O)CCCCNC(=O)[C@H](Cc2ccc(O)cc2)NC(=O)[C@H](C(C)C)NC(=O)[C@H](CCCNC(=N)N)NC(=O)CNC(=O)[C@H](CC(C)C)NC1=O [SEQ. ID. NO. 8] (Ac-RCMLGRVY[Ava][Ava]C-NH2; disulfide 2-11; C-terminus assumed) |
|  | 6.42 | 10% | < 5.00 | 31% | 8.20 | CSCC[C@@H]1NC(=O)[C@@H](NC(=O)CCCCNC(=N)N)CSSC[C@@H](C(N)=O)NC(=O)[C@@H]2CCCN2C(=O)[C@H](CCCNC(=N)N)NC(=O)[C@H](Cc2ccc(O)cc2)NC(=O)[C@H](C(C)C)NC(=O)[C@H](CCCNC(=N)N)NC(=O)CCCCNC(=O)CCCCNC1=O [SEQ. ID. NO. 5] ({Pentanoyl(5-guanidino)}-CM[Ava][Ava]RVYRPC-NH2; disulfide 1-10 (inferred); C-terminus assumed) |
|  | 7.70 | 99% |  |  |  | CSCC[C@@H]1NC(=O)[C@@H](NC(=O)[C@H](CCCNC(=N)N)NC(C)=O)CSSC[C@@H](C(N)=O)NC(=O)[C@@H]2CCCN2C(=O)[C@H](CCCNC(=N)N)NC(=O)[C@H](Cc2ccc(O)cc2)NC(=O)[C@H](C(C)C)NC(=O)[C@H](CCCNC(=N)N)NC(=O)CNC(=O)[C@H](CC(C)C)NC1=O [SEQ. ID. NO. 2] |
